ChEMBL document CHEMBL2429756, “Synthesis, docking, and in vitro studies of some substituted bischalcones on acid and alkaline phosphatases” (Med Chem Res, 2013)

Key:
[1] = Competitive inhibition of goat liver alkaline phosphatase assessed as residual activity using p-nitrophenyl phosphate as substrate by Lineweaver-Burk plot analysis; set-up: species or system Capra hircus
[2] = species on record: Capra hircus; assay: Inhibition of goat liver alkaline phosphatase assessed as residual activity using p-nitrophenyl phosphate as substrate at 1 mM after 30 mins relative to control
[3] = species on record: Capra hircus; assay: Inhibition of goat liver acid phosphatase assessed as residual activity using p-nitrophenyl phosphate as substrate at 1 mM after 30 mins relative to control
[4] = Non-competitive inhibition of goat liver alkaline phosphatase assessed as residual activity using p-nitrophenyl phosphate as substrate by Lineweaver-Burk plot analysis; set-up: species or system Capra hircus

| SMILES | Ki [1] [µM] | Activity [2] [%] | Activity [3] [%] | Ki [4] [µM] |
| --- | --- | --- | --- | --- |
| O=C1/C(=C/c2ccc(Br)cc2)CCC/C1=C\c1ccc(Br)cc1 | 565 | 43.5 | 127 |  |
| O=C1/C(=C/c2ccc(F)cc2)CCC/C1=C\c1ccc(F)cc1 | 1090 | 57.8 | 140 |  |
| COc1ccc(/C=C2\CCC/C(=C\c3ccc(OC)cc3)C2=O)cc1 | 389 | 31.7 | 158 |  |
| Cc1ccc(/C=C2\CCC/C(=C\c3ccc(C)cc3)C2=O)cc1 |  | 46 | 149 | 845 |
| c1ccc([C@H]2CN3CCSC3=N2)cc1 [LEVAMISOLE] | 4000 | 88 |  |  |
| CN(C)c1ccc(/C=C2\CCC/C(=C\c3ccc(N(C)C)cc3)C2=O)cc1 | 470 | 40.2 | 113 |  |

The next lines start with the values.

| Ki [1] [µM] | Activity [2] [%] | Activity [3] [%] | Ki [4] [µM] | SMILES |
| --- | --- | --- | --- | --- |
| 250 | 26 | 133 |  | O=C1/C(=C/c2ccc([N+](=O)[O-])cc2)CCC/C1=C\c1ccc([N+](=O)[O-])cc1 |
|  | 30.8 | 129 | 441 | O=C1/C(=C/C=C/c2ccccc2)CCC/C1=C\C=C\c1ccccc1 |
| 470 | 41.2 | 121 |  | O=C1/C(=C/c2ccccc2)CCC/C1=C\c1ccccc1 [2,6-DIBENZYLIDENECYCLOHEXANONE] |
| 670 | 46.2 | 129 |  | O=C1/C(=C/c2ccc(Cl)cc2)CCC/C1=C\c1ccc(Cl)cc1 |
